Experimental data from article PMC6915728 (Nature Communications, 2019).

Legend:
[1] = system: bacterial membrane; conditions: literature mining; ref superscript numbers in the cell, listed in Supplementary Data 7 sheet References; cited from earlier work
Excerpt: Supplement 41467_2019_13618_MOESM10_ESM.xlsx, sheet "AMP details" | column: Pore formation

[2] = system: E. coli BW25113 ΔmlaD; test: MIC, serial broth dilution, mlaD knockout strain vs wild type; type: cell-based, Escherichia coli
[3] = system: AMP-evolved E. coli lines; test: Cross-resistance / collateral sensitivity: relative MIC change of 38 laboratory-evolved AMP-resistant lines vs parental strain; type: cell-based, Escherichia coli; conditions: measured here
Excerpt: Here, we extended this dataset by measuring susceptibility changes of the same evolved lines to four additional AMPs using identical protocols to represent AMPs from all four clusters (Supplementary Fig. 15a, see also Methods). Overall, the resulting dataset of susceptibility profiles provides a comprehensive map of cross-resistance and collateral sensitivity between AMPs representing various modes of action.
To characterize the cross-resistance of the 38 E. coli lineages we obtained relative MIC changes that are, the MIC values of the evolved lines compared to these of the parental strain, from two data sources. First, we used already measured relative MIC changes from Spohn et al. Supplementary data 4[20]. […] Second, we extended this dataset by measuring the relative MIC changes of the same evolved lines to four additional AMPs using identical protocol. […] In this way, AMPs from each cluster were represented in the dataset.
Supplementary Figure 15. […] Relative change in MIC was determined for each evolved line by comparing its MIC to the ancestral cell line (control). […] CAP18-adaped lines were not included in the analysis because CAP18 is known as a membrane-targeting AMP in the literature. c, Cross-resistance interactions are enriched between membrane-targeting AMPs that are in the same chemical-genetic clusters (i.e. AMP pairs within C1 and within C2 clusters) (Significant difference: ** P = 0.0082 from two-sided Fisher’s exact test, n = 61 and 62 for within cluster and between clusters, respectively). […] Source data are provided as a Source Data file.

| Sequence | Pore formation (whether AMP makes pores in the bacterial membrane) [1] | Relative change in MIC (MIC of the AMP-adpated line / MIC of the ancestral strain) ([3]; AMP-adapted line BAC5_3) | Relative change in MIC (MIC of the AMP-adpated line / MIC of the ancestral strain) ([3]; AMP-adapted line BAC5_5) | Relative change in MIC (MIC of the AMP-adpated line / MIC of the ancestral strain) ([3]; AMP-adapted line BAC5_7) | Relative change in MIC (MIC of the AMP-adpated line / MIC of the ancestral strain) ([3]; AMP-adapted line BAC5_10) | Relative change in MIC (MIC of the AMP-adpated line / MIC of the ancestral strain) ([3]; AMP-adapted line CAP18_2) | Relative change in MIC (MIC of the AMP-adpated line / MIC of the ancestral strain) ([3]; AMP-adapted line CAP18_5) | Relative change in MIC (MIC of the AMP-adpated line / MIC of the ancestral strain) ([3]; AMP-adapted line CAP18_6) | Relative change in MIC (MIC of the AMP-adpated line / MIC of the ancestral strain) ([3]; AMP-adapted line CAP18_8) | Relative change in MIC (MIC of the AMP-adpated line / MIC of the ancestral strain) ([3]; AMP-adapted line CAP18_10) | Relative change in MIC (MIC of the AMP-adpated line / MIC of the ancestral strain) ([3]; AMP-adapted line HBD3_3) | Relative change in MIC (MIC of the AMP-adpated line / MIC of the ancestral strain) ([3]; AMP-adapted line HBD3_6) | Relative change in MIC (MIC of the AMP-adpated line / MIC of the ancestral strain) ([3]; AMP-adapted line HBD3_8) | Relative change in MIC (MIC of the AMP-adpated line / MIC of the ancestral strain) ([3]; AMP-adapted line HBD3_10) | Relative change in MIC (MIC of the AMP-adpated line / MIC of the ancestral strain) ([3]; AMP-adapted line LL37_1) | Relative change in MIC (MIC of the AMP-adpated line / MIC of the ancestral strain) ([3]; AMP-adapted line LL37_3) | Relative change in MIC (MIC of the AMP-adpated line / MIC of the ancestral strain) ([3]; AMP-adapted line LL37_6) | Relative change in MIC (MIC of the AMP-adpated line / MIC of the ancestral strain) ([3]; AMP-adapted line LL37_7) | Relative change in MIC (MIC of the AMP-adpated line / MIC of the ancestral strain) ([3]; AMP-adapted line LL37_10) | Relative change in MIC (MIC of the AMP-adpated line / MIC of the ancestral strain) ([3]; AMP-adapted line PR39_1) | other results |
| --- | --- | --- | --- | --- | --- | --- | --- | --- | --- | --- | --- | --- | --- | --- | --- | --- | --- | --- | --- | --- | --- |
| GIGKFLKKAKKFGKAFVKILKK [PEX, Pexiganan, synthetic Magainin derivative; disrupts cell membrane; cluster C2] | Yes13 | 1 | 1 | 1.1 | 1.1 | 3.036 | >3.6 | 1.964 | 2.986 | 2.488 | 3.648 | 2.089 | 3.578 | 2.72 | 1.584 | 1.32 | 1.22 | 2.986 | 2.093 | 1.464 | Average relative change in MIC ([2]; mlaD deletion strain relative to control (E. coli BW25113), 3 replicates each, from optical density values of serial dilution plates, AMP in µg ml-1): 1.58; Relative change in MIC (MIC of the AMP-adpated line / MIC of the ancestral strain) ([3]; AMP-adapted line PR39_2): 1.1; Relative change in MIC (MIC of the AMP-adpated line / MIC of the ancestral strain) ([3]; AMP-adapted line PR39_5): 1.1; Relative change in MIC (MIC of the AMP-adpated line / MIC of the ancestral strain) ([3]; AMP-adapted line PR39_7): 1.1; Relative change in MIC (MIC of the AMP-adpated line / MIC of the ancestral strain) ([3]; AMP-adapted line PR39_10): 1; Relative change in MIC (MIC of the AMP-adpated line / MIC of the ancestral strain) ([3]; AMP-adapted line PROA_2): 1.1; Relative change in MIC (MIC of the AMP-adpated line / MIC of the ancestral strain) ([3]; AMP-adapted line PROA_3): 1.1; Relative change in MIC (MIC of the AMP-adpated line / MIC of the ancestral strain) ([3]; AMP-adapted line PROA_7): 0.915; Relative change in MIC (MIC of the AMP-adpated line / MIC of the ancestral strain) ([3]; AMP-adapted line PROA_8): 1.2; Relative change in MIC (MIC of the AMP-adpated line / MIC of the ancestral strain) ([3]; AMP-adapted line PROA_9): 1; Relative change in MIC (MIC of the AMP-adpated line / MIC of the ancestral strain) ([3]; AMP-adapted line PXB_2): 1.32; Relative change in MIC (MIC of the AMP-adpated line / MIC of the ancestral strain) ([3]; AMP-adapted line PXB_5): 1.844; Relative change in MIC (MIC of the AMP-adpated line / MIC of the ancestral strain) ([3]; AMP-adapted line PXB_6): 1.6368; Relative change in MIC (MIC of the AMP-adpated line / MIC of the ancestral strain) ([3]; AMP-adapted line PXB_8): 1.844; Relative change in MIC (MIC of the AMP-adpated line / MIC of the ancestral strain) ([3]; AMP-adapted line PXB_10): >3.6 |
| TSSPPAAVVVRRRRRRRRRRRRRRRRRRR [PROA, Protamine, source herring, purchased from Sigma-Aldrich; cluster C3] | No43 | 1.1 | 1.015 | 1.44 | 1.728 | 1.2 | 0.7622 | 0.7622 | 1.22 | 1.44 | 1.464 | 0.7639 | 1.22 | 1.584 | 0.7044 | 0.7622 | 0.48 | 1 | 0.48 | 2.99 | Average relative change in MIC ([2]; mlaD deletion strain vs control E. coli BW25113, average of 3 replicates): 0.43; Relative change in MIC (MIC of the AMP-adpated line / MIC of the ancestral strain) ([3]; AMP-adapted line PEX_1): 1.2; Relative change in MIC (MIC of the AMP-adpated line / MIC of the ancestral strain) ([3]; AMP-adapted line PEX_4): 1.728; Relative change in MIC (MIC of the AMP-adpated line / MIC of the ancestral strain) ([3]; AMP-adapted line PEX_5): 0.915; Relative change in MIC (MIC of the AMP-adpated line / MIC of the ancestral strain) ([3]; AMP-adapted line PEX_6): 2.0736; Relative change in MIC (MIC of the AMP-adpated line / MIC of the ancestral strain) ([3]; AMP-adapted line PEX_7): 0.8472; Relative change in MIC (MIC of the AMP-adpated line / MIC of the ancestral strain) ([3]; AMP-adapted line PR39_2): 1.2; Relative change in MIC (MIC of the AMP-adpated line / MIC of the ancestral strain) ([3]; AMP-adapted line PR39_5): 1.2; Relative change in MIC (MIC of the AMP-adpated line / MIC of the ancestral strain) ([3]; AMP-adapted line PR39_7): 1.73; Relative change in MIC (MIC of the AMP-adpated line / MIC of the ancestral strain) ([3]; AMP-adapted line PR39_10): 1.44; Relative change in MIC (MIC of the AMP-adpated line / MIC of the ancestral strain) ([3]; AMP-adapted line PXB_2): 1.7568; Relative change in MIC (MIC of the AMP-adpated line / MIC of the ancestral strain) ([3]; AMP-adapted line PXB_5): 0.8333; Relative change in MIC (MIC of the AMP-adpated line / MIC of the ancestral strain) ([3]; AMP-adapted line PXB_6): 1; Relative change in MIC (MIC of the AMP-adpated line / MIC of the ancestral strain) ([3]; AMP-adapted line PXB_8): 1; Relative change in MIC (MIC of the AMP-adpated line / MIC of the ancestral strain) ([3]; AMP-adapted line PXB_10): 1.44 |
